Assay results published in patent publication US9422254B2, “Methoxyacrylate-based fungicide and methods for preparing and using the same” (priority 2008, dated 2016).

What was measured:
Format in all cases: biochemical
[1] = biological target: NADH oxidase (NOX) (Sus scrofa, UniProt P24964); assay: Enzyme activity test, NOX
Experimental: (§1) Take NADH oxidase (NOX), succinate-cytochrome C oxidase (SCO), and Complex III as target enzymes, the inhibitory activity of the compound of Formula (I) was tested.
(§2) ^a NOX is generally used to detect an inhibitor of Complex I and Complex III; SCO is generally used to detect an inhibitor of Complex II and Complex III. Thus, an inhibitor of Complex III should have inhibitory activity on the two enzymes.

[2] = biological target: T1, cytochrome bc1 complex of pig heart (Sus scrofa, UniProt P24964); assay: Enzyme activity test, Complex III; conditions: cytochrome bc1 complex of pig heart; read-out: IC50 (nM) Complex III
T1 construct: The test target is cytochrome bc1 complex of pig heart; from tissue; host or cells: pig heart
T1 sequence (P24964 whole entry, one chain of several): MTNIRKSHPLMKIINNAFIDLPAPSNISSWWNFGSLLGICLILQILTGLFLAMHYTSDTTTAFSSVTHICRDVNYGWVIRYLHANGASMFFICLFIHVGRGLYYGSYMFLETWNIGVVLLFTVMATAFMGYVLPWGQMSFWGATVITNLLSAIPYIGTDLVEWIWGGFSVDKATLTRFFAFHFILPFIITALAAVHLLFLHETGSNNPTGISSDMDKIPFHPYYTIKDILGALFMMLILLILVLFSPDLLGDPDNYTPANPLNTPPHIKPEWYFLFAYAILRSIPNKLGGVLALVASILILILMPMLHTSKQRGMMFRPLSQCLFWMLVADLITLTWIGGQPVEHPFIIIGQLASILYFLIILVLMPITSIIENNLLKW
Experimental: as §1
^b The test target is cytochrome bc1 complex of pig heart.

[3] = biological target: succinate-cytochrome C oxidase (SCO) (Sus scrofa, UniProt P24964); assay: Enzyme activity test, SCO
succinate-cytochrome C oxidase (SCO), sequence (P24964 whole entry): as the sequence (P24964 whole entry, one chain of several) above
Experimental: as §1, §2

NADH oxidase (NOX), sequence (P24964 whole entry): as the sequence (P24964 whole entry, one chain of several) above

Question: Which results are given for `CO/C=C(/C(=O)OC)c1ccccc1Oc1cc(Oc2ccccc2C#N)ncn1` [Azoxystrobin, azoxystrobin, reference compound]?
Answer: IC50 [1]: 27 nM; IC50 [2]: 200 nM; IC50 [3]: 13 nM
